For one data set, the system named is ND3 neuronal cell line. Nature of the data set: Nerve growth stimulation effect: neurite bearing assay and neurite length assay. The data set is classed as cell-based. The note with it: for Neurite length per cell (relative activity, maximum activity of compound (I) = 1) / Number of cells (relative cell number, DMSO well = 1) / Proportion of neurite-bearing cells (relative activity, maximum activity of compound (I) = 1): 6 hours. How it is done: To evaluate the nerve growth stimulation effect, neurite bearing assay (proportion of neurite-bearing cells) and neurite length assay (neurite length) were analyzed with reference to the method of Topalli et al. (Brain Research 1030 (2004), pp. 116-124).
An ND3 neuronal cell line (European Collection of Authenticated Cell Cultures) was seeded in a DMEM medium containing 10% fetal bovine serum (0.6×10^4 cells/1 mL) in a 24-well plate. 24 hours later, the medium of seeded cells was removed, and a solution in which compound (I) that was sequentially diluted in dimethyl sulfoxide (DMSO) was adjusted in DMEM containing 0.1% bovine serum albumin so that the DMSO final concentration was 0.1%, was added to cells (evaluation performed in duplicate). After six hours from the addition, the proportion of neurite-bearing cells (the number of cells having a neurite longer than the diameter of the cell body/number of total cells), and the neurite length per cell were analyzed. Further, a test was performed in the same manner as described above, except that compound A was used in place of compound (I). The number of total cells, proportion of neurite-bearing cells, and neurite length per cell were analyzed using a MetaMorph Neurite Outgrowth Application Module (Molecular Devices Japan K. K.). The number of cells was defined as the relative cell number, taking the number of cells per well containing DMSO as 1 (Tables 4 and 5). […] The test was conducted multiple times, and the average value was shown. Data with a number of cells of 0.5 or more was used. Accordingly, if the number of cells was less than 0.5, the neurite length per cell and the proportion of neurite-bearing cells were defined as […]

Data set [1] is described as follows: Solid stability test (HPLC purity after storage). The data set is classed as physicochemical. Conditions: for Change in purity (in words) / Increase in related substances / Purity after 4 weeks of storage under sealed conditions at 25° C. / Change in purity: 25° C./60% RH (closed system), 4 weeks; for Purity after 4 weeks of storage under sealed conditions at 25° C. / Purity of compound (I) before storage: HPLC. How it is done: The solid stability of the type I crystal, type II crystal, and type III crystal of compound (I) obtained in Examples 1 to 3 was evaluated after storage for 4 weeks.
Storage condition: 25° C./60% RH (closed system)
Storage amount: about 25 mg
Storage container: glass bottle
Changes in the purity of compound (I) and in the amounts of related substances (the amounts of substances detected other than compound (I)) were analyzed by weighing about 1 mg of the sample, dissolving it in 2 mL of acetonitrile, and accurately measuring 5 μL of this liquid for analysis by HPLC according to the following method. The handling of the apparatus, including data processing, was in accordance with the method and procedure as instructed for each apparatus.
Column: YMC-Triart C8 (4.6×150 mm, 3 μm), produced by YMC Co., Ltd.
Column temperature: 40° C.
Sample concentration: 0.5 mg/mL
Mobile phase A: Liquid mixture of water/acetonitrile (1:1 v/v)
Mobile phase B: Acetonitrile

The nature of data set [2]: Dynamic moisture adsorption/desorption test. The data set is classed as physicochemical. The note with it: at 95% relative humidity, 25° C. On the procedure:
The type I crystal, type II crystal, and type III crystal of compound (I) obtained in Examples 1 to 3 were subjected to a moisture adsorption/desorption test after storage for 4 weeks.
The moisture adsorption/desorption test was performed according to the following conditions.
About 10 mg of the sample was filled in a dedicated quartz holder, and the weight of the sample at each humidity was continuously measured and recorded under the following conditions. The handling of the apparatus, including data processing, was in accordance with the method and procedure as instructed for each apparatus.
Apparatus: VTI-SA+ (TA Instruments, Inc.)
Drying temperature: 25° C.
Temperature increase rate: 1° C./min
Measurement temperature: 25° C.
Relative humidity program: Increase by 5% RH from 5% RH to 95% RH and decrease by 5% RH from 95% RH to 5% RH

A short description of data set [3]: Pharmacokinetics after oral administration to rats. It is filed as in vivo, rat (Crl: CD (SD)). The note with it: male rat, 10 mg/kg. On the procedure:
The required amount of compound (I) was weighed, and a drug suspension was prepared in 0.5% hydroxypropyl methylcellulose. The number of rats in each group was two, and each drug suspension was administered orally to each male rat (Crl: CD (SD)) using an oral sonde (the dose of the compound was 10 mg/kg). At each blood collection point (0.5, 1, 2, 4, 8, and 24 hours after administration), blood was collected from the jugular vein using a syringe and a needle (the anticoagulant was heparin sodium). The collected blood was centrifuged (13000 rpm, 2 min, 4° C.) to prepare plasma, followed by deproteinization. Thereafter, the concentration of the compound in the plasma was measured by LC/MS/MS (LCMS-8040 (Shimadzu Corporation) or API 4000 (AB Sciex), LC: 30-A and 20-A series (Shimadzu Corporation) or Waters Acquity (Waters Corporation)). A drug suspension was prepared and administered, and the concentration of the compound was measured, in the same manner as described above, except that compound A was used in place of compound (I).

The test system of data set [4] is streptozotocin-induced diabetes mellitus (DM) rat model. Nature of the data set: Drug efficacy in diabetes mellitus (DM) rat model, bladder function by cystometry. It is filed as in vivo, SD rats. The note with it: STZ DM rats, oral twice a day for 4 weeks. How it is done: To examine the effect of the compound in a diabetes mellitus model, bladder function was analyzed by cystometry based on the method of Saitoh et al. (European Journal of Pharmacology 501 (2004) 143-149).
A streptozotocin (STZ) solution obtained by dissolving STZ in a citrate buffer solution (0.1 M citric acid, pH of 4.2) to a concentration of 32.5 mg/mL was prepared, and administered intraperitoneally (65 mg/kg) to SD rats to induce DM models. The same procedure was performed on sham rats except that a citrate buffer solution was used in place of the STZ solution.
On the day after the model production and 4 weeks later, a blood sample was taken from the tail vein with the rats awake to measure the blood glucose level. […] Individuals with a blood glucose level of 300 mg/dL or more on the day after the production of the model and 4 weeks later were determined to be established DM models and used in subsequent operations. […]
A pressure transducer (DX-360, Nihon Kohden Kogyo Co., Ltd.) and an infusion pump (TE-331S, Terumo Corporation) were connected via a three-way valve to the other end of the catheter inserted into the bladder. […] The volume of urination was automatically measured using an electronic balance (GX-200, A&D Company Limited) set directly under the holding cage, and recorded continuously on a computer using a PowerLab (sampling rate: 20/sec). […]

Consider `CC1=C(CCCCCCCCCCCCCCCO)C(C)(C)CCC1=O` [Compound A, 3-(15-Hydroxypentadecyl)-2,4,4-trimethylcyclohex-2-en-1-one], for which the “Neurite length per cell (relative activity, maximum activity of compound (I) = 1)” value was 0.26 with ND3 neuronal cell line (1 μM), 0.33 in the data set on ND3 neuronal cell line (3 μM), 0.39 in the data set with ND3 neuronal cell line (5 μM) and 0.71 in the data set on ND3 neuronal cell line (10 μM). The “Number of cells (relative cell number, DMSO well = 1)” value was 1.03 with ND3 neuronal cell line (1 μM); 0.92 in the data set on ND3 neuronal cell line (3 μM); 0.92 in the data set on ND3 neuronal cell line (5 μM); 1.0 in the data set with ND3 neuronal cell line (10 μM); 0.19 in the data set on ND3 neuronal cell line (30 μM). The “Proportion of neurite-bearing cells (relative activity, maximum activity of compound (I) = 1)” value came out at 0.24 with ND3 neuronal cell line (1 μM), 0.34 in the data set with ND3 neuronal cell line (3 μM), 0.41 in the data set with ND3 neuronal cell line (5 μM) and 0.70 in the data set on ND3 neuronal cell line (10 μM).
As for `COCCCCCCCCCCCCCCCC1=C(C)C(=O)CCC1(C)C` [Type III crystal, 3-(15-methoxypentadecyl)-2,4,4-trimethylcyclohex-2-en-1-one], in data set [1], the “Change in purity (in words)” value is reported as “almost no change in purity”, the “Increase in related substances” value is “almost no increase in related substances”, the “Purity after 4 weeks of storage under sealed conditions at 25° C.” value (from here on “Purity after 4 weeks of storage”) came out at 99.77% and the “Purity of compound (I) before storage” value came out at 99.77%. For the same molecule, the Moisture absorption entry in data set [2] is “almost no moisture absorption”.
Turning to `COCCCCCCCCCCCCCCCC1=C(C)C(=O)CCC1(C)C` [Compound (I), 3-(15-methoxypentadecyl)-2,4,4-trimethylcyclohex-2-en-1-one], the “Improvement in area under the curve (AUC) as compared to compound A” value in data set [3] is given as ≥ 1900 times. The “Improvement in maximum blood concentration Cmax as compared to compound A” value in data set [3] is ≥ 1100 times. For the same molecule, the “Drug efficacy (residual urine volume, FIG. 10) as compared to compound A” value in data set [4] is “remarkable drug efficacy”. Further, the “Number of cells (relative cell number, DMSO well = 1)” value came out at 1.06 with ND3 neuronal cell line (1 μM); 1.01 with ND3 neuronal cell line (3 μM); 0.94 with ND3 neuronal cell line (5 μM); 0.92 with ND3 neuronal cell line (10 μM); 0.96 with ND3 neuronal cell line (30 μM); 0.92 in the data set with ND3 neuronal cell line (100 μM). In the data set on ND3 neuronal cell line (Table 5), the “Nerve growth stimulation effect compared to compound A” value is listed as “excellent nerve growth stimulation effect”. Besides, the “Number of relative cells” value in the data set on ND3 neuronal cell line (added in an amount of 1 to 100 μM) is recorded as ≥ 0.5.
`COCCCCCCCCCCCCCCCC1=C(C)C(=O)CCC1(C)C` [Type I crystal, 3-(15-methoxypentadecyl)-2,4,4-trimethylcyclohex-2-en-1-one]: in data set [1], the Change in purity result is listed as “+0.01%”, the “Change in purity (in words)” value is “almost no change in purity”, the “Increase in related substances” value was “almost no increase in related substances” and the “Purity after 4 weeks of storage” value stood at 99.71%. The “Purity of compound (I) before storage” value in data set [1] is on record as 99.70%. For the same molecule, the Moisture absorption entry in data set [2] is recorded as “almost no moisture absorption”.
In the case of `COCCCCCCCCCCCCCCCC1=C(C)C(=O)CCC1(C)C` [Type II crystal, 3-(15-methoxypentadecyl)-2,4,4-trimethylcyclohex-2-en-1-one], in data set [1], the Change in purity was −0.01%, the “Change in purity (in words)” value was “almost no change in purity”, the “Increase in related substances” value is reported as “almost no increase in related substances” and the “Purity after 4 weeks of storage” value turned out to be 99.72%. Further, in data set [1], the “Purity of compound (I) before storage” value was determined as 99.73%. The Moisture absorption entry in data set [2] was “almost no moisture absorption”.

For the origin of these results see US20250178998A1, “CRYSTAL FORM OF CYCLOHEXENONE COMPOUND” (TAIHO PHARMACEUTICAL CO., LTD., priority 2022, published 2025).
